{"source": "patent US8959984B2", "about": "“Proteome-wide quantification of small molecule binding to cellular target proteins” (priority 2007, dated 2015)", "key": {"GAK": {"molecular_target": "T1, GAK (Homo sapiens, UniProt O14976)", "T1 sequence (O14976 1-1311)": "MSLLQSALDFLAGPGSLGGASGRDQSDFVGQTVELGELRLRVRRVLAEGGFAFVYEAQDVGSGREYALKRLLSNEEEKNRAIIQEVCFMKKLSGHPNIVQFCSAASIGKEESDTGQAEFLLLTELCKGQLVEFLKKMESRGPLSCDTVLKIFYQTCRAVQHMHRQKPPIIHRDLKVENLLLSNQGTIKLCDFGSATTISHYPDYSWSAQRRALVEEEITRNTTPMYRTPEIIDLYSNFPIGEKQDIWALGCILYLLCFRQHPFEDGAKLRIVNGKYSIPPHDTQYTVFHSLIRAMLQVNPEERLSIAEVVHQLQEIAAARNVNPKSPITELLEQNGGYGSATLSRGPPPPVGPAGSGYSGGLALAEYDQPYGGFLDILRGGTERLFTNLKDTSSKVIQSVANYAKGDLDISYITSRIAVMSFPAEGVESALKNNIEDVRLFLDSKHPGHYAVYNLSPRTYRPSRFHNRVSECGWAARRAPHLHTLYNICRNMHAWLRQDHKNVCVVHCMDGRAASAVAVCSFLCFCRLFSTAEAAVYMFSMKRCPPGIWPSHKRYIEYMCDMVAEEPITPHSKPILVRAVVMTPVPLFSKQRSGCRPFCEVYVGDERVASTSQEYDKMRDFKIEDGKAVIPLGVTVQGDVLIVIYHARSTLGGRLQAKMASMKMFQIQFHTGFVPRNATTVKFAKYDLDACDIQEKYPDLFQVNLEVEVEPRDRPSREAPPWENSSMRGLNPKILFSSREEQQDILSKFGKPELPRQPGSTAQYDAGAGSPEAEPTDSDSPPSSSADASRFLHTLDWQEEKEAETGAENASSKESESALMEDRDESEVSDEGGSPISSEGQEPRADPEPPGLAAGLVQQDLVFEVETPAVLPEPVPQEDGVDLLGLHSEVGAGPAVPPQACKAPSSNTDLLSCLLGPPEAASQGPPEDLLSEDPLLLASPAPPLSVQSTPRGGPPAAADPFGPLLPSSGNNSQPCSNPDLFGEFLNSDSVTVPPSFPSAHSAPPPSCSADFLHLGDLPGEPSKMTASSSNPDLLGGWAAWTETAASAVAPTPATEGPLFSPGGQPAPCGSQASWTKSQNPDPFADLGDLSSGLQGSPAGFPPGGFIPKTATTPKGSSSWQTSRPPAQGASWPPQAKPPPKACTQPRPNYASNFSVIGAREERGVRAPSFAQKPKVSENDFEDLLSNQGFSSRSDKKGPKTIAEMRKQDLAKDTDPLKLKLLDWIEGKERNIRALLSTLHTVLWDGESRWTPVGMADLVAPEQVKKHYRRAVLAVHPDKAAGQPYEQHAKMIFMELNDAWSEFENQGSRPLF", "assay": "binding to immobilized V16742 (IVA1/IVA2, HeLa lysate, MS)"}, "GSK3B": {"molecular_target": "GSK3B (Homo sapiens, UniProt P49841)", "sequence (P49841 whole entry)": "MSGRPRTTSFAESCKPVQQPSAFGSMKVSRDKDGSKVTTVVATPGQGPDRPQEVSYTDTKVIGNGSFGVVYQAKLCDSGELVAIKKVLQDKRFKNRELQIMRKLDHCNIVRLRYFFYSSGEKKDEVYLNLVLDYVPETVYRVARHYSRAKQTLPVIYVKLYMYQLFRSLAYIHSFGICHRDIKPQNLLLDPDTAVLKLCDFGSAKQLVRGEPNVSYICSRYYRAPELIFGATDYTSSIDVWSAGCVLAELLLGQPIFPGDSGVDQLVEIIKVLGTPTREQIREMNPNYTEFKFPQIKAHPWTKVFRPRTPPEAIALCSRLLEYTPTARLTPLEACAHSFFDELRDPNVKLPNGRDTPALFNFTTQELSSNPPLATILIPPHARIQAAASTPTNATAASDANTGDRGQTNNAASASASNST", "assay": "binding to immobilized V16742 (IVA1/IVA2, HeLa lysate, MS)"}, "BRD3": {"molecular_target": "BRD3 (Homo sapiens, UniProt Q15059)", "sequence (Q15059 whole entry)": "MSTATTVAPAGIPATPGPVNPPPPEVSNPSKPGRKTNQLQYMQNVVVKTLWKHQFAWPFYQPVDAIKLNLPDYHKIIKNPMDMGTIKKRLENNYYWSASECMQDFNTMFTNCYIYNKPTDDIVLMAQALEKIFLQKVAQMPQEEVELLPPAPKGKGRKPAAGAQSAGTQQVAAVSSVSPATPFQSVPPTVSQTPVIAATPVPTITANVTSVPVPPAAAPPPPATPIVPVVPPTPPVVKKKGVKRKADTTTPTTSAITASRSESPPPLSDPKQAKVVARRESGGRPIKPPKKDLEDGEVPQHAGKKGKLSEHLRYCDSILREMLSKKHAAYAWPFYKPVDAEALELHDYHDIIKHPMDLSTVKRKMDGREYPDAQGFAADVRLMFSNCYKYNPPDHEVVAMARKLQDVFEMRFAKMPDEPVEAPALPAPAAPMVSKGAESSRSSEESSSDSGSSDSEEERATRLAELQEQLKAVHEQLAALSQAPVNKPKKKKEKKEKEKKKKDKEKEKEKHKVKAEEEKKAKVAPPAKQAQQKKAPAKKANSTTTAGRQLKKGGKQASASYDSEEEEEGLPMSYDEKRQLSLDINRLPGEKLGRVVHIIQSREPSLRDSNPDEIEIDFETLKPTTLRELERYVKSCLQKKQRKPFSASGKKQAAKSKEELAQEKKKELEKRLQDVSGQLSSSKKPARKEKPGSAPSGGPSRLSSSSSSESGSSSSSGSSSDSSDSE", "assay": "binding to immobilized V16742 (IVA1/IVA2, HeLa lysate, MS)"}, "CK1e (CSNK1E)": {"molecular_target": "CK1e (CSNK1E) (Homo sapiens, UniProt P49674)", "sequence (P49674 whole entry)": "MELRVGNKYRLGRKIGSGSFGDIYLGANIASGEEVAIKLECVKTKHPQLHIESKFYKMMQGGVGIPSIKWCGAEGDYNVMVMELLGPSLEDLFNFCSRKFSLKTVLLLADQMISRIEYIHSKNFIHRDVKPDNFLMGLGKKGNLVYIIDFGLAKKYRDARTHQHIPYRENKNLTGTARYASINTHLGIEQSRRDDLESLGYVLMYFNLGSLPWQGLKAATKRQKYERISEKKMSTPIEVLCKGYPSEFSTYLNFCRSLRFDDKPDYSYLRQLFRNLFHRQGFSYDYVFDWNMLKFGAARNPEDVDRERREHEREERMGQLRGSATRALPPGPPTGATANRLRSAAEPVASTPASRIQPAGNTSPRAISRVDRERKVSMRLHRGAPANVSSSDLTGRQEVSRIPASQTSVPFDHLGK"}, "DYRK1A (IPI00219250)": {"molecular_target": "T2, DYRK1A (IPI00219250) (Homo sapiens, UniProt Q13627)", "T2 construct": "endogenous in cells; host or cells: HeLa S3 cell lysate", "assay": "binding to VI16742 beads (HeLa lysate, SILAC MS)"}}, "note": "Read-outs that look alike come from different tables or passages of the source."}
{"smiles": "CC(C)n1c(=O)ccc2cnc(Nc3ccc(OCCN)cc3)nc21", "note": "[compound 16742]", "values": [{"measurement": "Percent bound at 1.87 μM 16742 conc", "setting": "GAK; EXPERIMENT 1", "value": 8.35, "unit": "%"}, {"measurement": "Percent bound at 8.74 μM 16742 conc", "setting": "GAK; EXPERIMENT 1", "value": 29.77, "unit": "%"}, {"measurement": "Percent bound at 52 μM 16742 conc", "setting": "GAK; EXPERIMENT 1", "value": 69.07, "unit": "%"}, {"measurement": "Kd", "setting": "GAK; EXPERIMENT 1, read-out: Kd", "value": 21.9, "unit": "µM"}, {"measurement": "Percent bound at 1.87 μM 16742 conc", "setting": "GAK; EXPERIMENT 2", "value": 6.15, "unit": "%"}, {"measurement": "Percent bound at 8.74 μM 16742 conc", "setting": "GAK; EXPERIMENT 2", "value": 27.34, "unit": "%"}, {"measurement": "Percent bound at 52 μM 16742 conc", "setting": "GAK; EXPERIMENT 2", "value": 63.94, "unit": "%"}, {"measurement": "Kd", "setting": "GAK; EXPERIMENT 2, read-out: Kd", "value": 26.7, "unit": "µM"}, {"measurement": "Kd", "setting": "GAK; read-out: Kd Avg", "value": 24.3, "unit": "µM"}, {"measurement": "Percent bound at 1.87 μM 16742 conc", "setting": "GSK3B; EXPERIMENT 1", "value": 12.33, "unit": "%"}, {"measurement": "Percent bound at 8.74 μM 16742 conc", "setting": "GSK3B; EXPERIMENT 1", "value": 51.81, "unit": "%"}, {"measurement": "Percent bound at 52 μM 16742 conc", "setting": "GSK3B; EXPERIMENT 1", "value": 91.30, "unit": "%"}, {"measurement": "Kd", "setting": "GSK3B; EXPERIMENT 1, read-out: Kd", "value": 8.44, "unit": "µM"}, {"measurement": "Percent bound at 1.87 μM 16742 conc", "setting": "GSK3B; EXPERIMENT 2", "value": 8.04, "unit": "%"}, {"measurement": "Percent bound at 8.74 μM 16742 conc", "setting": "GSK3B; EXPERIMENT 2", "value": 41.97, "unit": "%"}, {"measurement": "Percent bound at 52 μM 16742 conc", "setting": "GSK3B; EXPERIMENT 2", "value": 88.20, "unit": "%"}, {"measurement": "Kd", "setting": "GSK3B; EXPERIMENT 2, read-out: Kd", "value": 11.6, "unit": "µM"}, {"measurement": "Kd", "setting": "GSK3B; read-out: Kd Avg", "value": 10, "unit": "µM"}, {"measurement": "Percent bound at 1.87 μM 16742 conc", "setting": "BRD3; EXPERIMENT 1", "value": 0.00, "unit": "%"}, {"measurement": "Percent bound at 8.74 μM 16742 conc", "setting": "BRD3; EXPERIMENT 1", "value": 0.00, "unit": "%"}, {"measurement": "Percent bound at 52 μM 16742 conc", "setting": "BRD3; EXPERIMENT 1", "value": 71.55, "unit": "%"}, {"measurement": "Kd", "setting": "BRD3; EXPERIMENT 1, read-out: Kd", "value": 37, "unit": "µM"}, {"measurement": "Percent bound at 1.87 μM 16742 conc", "setting": "BRD3; EXPERIMENT 2", "value": 8.24, "unit": "%"}, {"measurement": "Percent bound at 8.74 μM 16742 conc", "setting": "BRD3; EXPERIMENT 2", "value": 11.86, "unit": "%"}, {"measurement": "Percent bound at 52 μM 16742 conc", "setting": "BRD3; EXPERIMENT 2", "value": 65.82, "unit": "%"}, {"measurement": "Kd", "setting": "BRD3; EXPERIMENT 2, read-out: Kd", "value": 33.9, "unit": "µM"}, {"measurement": "Kd", "setting": "BRD3; read-out: Kd Avg", "value": 35.4, "unit": "µM"}]}
{"smiles": "COc1cc2ncnc(Nc3ccc(F)c(Cl)c3)c2cc1OCCCN1CCOCC1", "note": "[gefitinib]", "values": [{"measurement": "rAVERAGE (10 nM/0 nM Gef.)", "setting": "CK1e (CSNK1E)", "value": 0.80}, {"measurement": "rAVERAGE (100 nM/0 nM Gef.)", "setting": "CK1e (CSNK1E)", "value": 1.00}, {"measurement": "rAVERAGE (1000 nM/0 nM Gef.)", "setting": "CK1e (CSNK1E)", "value": 0.84}, {"measurement": "rAVERAGE (10000 nM/0 nM Gef.)", "setting": "CK1e (CSNK1E)", "value": 0.59}]}
{"smiles": "CC(C)n1c(=O)ccc2cnc(Nc3ccc(OCCN)cc3)nc21", "note": "[V16742]", "values": [{"measurement": "rAVERAGE (CTRL/1 INC)", "setting": "DYRK1A (IPI00219250); control beads vs first incubation", "value": 0.08}, {"measurement": "Ki", "setting": "DYRK1A (IPI00219250); immobilized VI16742", "value": 83.8, "unit": "µM"}, {"measurement": "rAVERAGE (2 INC/1 INC)", "setting": "DYRK1A (IPI00219250); second vs first incubation", "value": 0.62}]}
